pIC50: −log10 of the molar value. Structures can show the parent of a compound that is named as a salt. Some results are limits rather than exact numbers.

From patent publication US9249163B2, “PDE10a inhibitors for the treatment of type II diabetes” (Janssen Pharmaceutica, NV, priority 2013, dated 2016) come the findings set out here.

Test [1] concerns the target Rat recombinant PDE10a (rPDE10a) (Rattus norvegicus (Rat), UniProt Q9QYJ6). Briefly: In vitro assay PDE10a (rat recombinant PDE10a, SPA). Format: biochemical. Conditions: 60 nM cAMP, 60 min at rt, read-out: rPDE10a2 IC50. The protocol: Rat recombinant PDE10a (rPDE10a) was expressed in Sf9 cells using a recombinant rPDE10a baculovirus construct. Cells were harvested after 48 h of infection and the rPDE10a protein was purified by metal chelate chromatography on Ni-sepharose 6FF. Tested compounds were dissolved and diluted in 100% DMSO to a concentration 100 fold of the final concentration in the assay. Compound dilutions (0.4 μL) were added in 384 well plates to 20 μL of incubation buffer (50 mM Tris pH 7.8, 8.3 mM MgCl2, 1.7 mM EGTA). 10 μL of rPDE10a enzyme in incubation buffer was added and the reaction was started by addition of 10 μL substrate to a final concentration of 60 nM cAMP and 0.008 μCi ^3H-cAMP. The reaction was incubated for 60 min at rt. After incubation, the reaction was stopped with 20 μL of 17.8 mg/mL PDE SPA beads. After sedimentation of the beads during 30 min the radioactivity was measured in a Perkin Elmer Topcount scintillation counter and results were expressed as cpm. For blank values the enzyme was omitted from the reaction and replaced by incubation buffer. Control values were obtained by addition of a final concentration of 1% DMSO instead of compound.

In test [2] the target is Human recombinant PDE10A2 (Homo sapiens (Human), UniProt Q9Y233). Description: In vitro hPDE10a (human recombinant PDE10A2, scintillation proximity assay). Conditions: human recombinant PDE10A2, 60 nM cAMP, 60 min at room temperature; read-out: hPDE10a2 IC50. It counts as biochemical. The protocol: Human recombinant PDE10A2 was expressed in Sf9 cells, using a recombinant baculovirus construct containing the full length sequence containing a 6×His sequence following the start Met to allow metal affinity purification of the recombinant protein. Cells were harvested and the phosphodiesterase protein was purified by metal chelate chromatography on Ni-sepharose 6FF.
The affinity of the compounds of Formula (I) for phophodiesterases (PDE) was measured by a scintillation proximity assay (SPA). PDE Yttrium Silicate SPA beads allow PDE activity to be measured by direct binding of the primary phosphate groups of non-cyclic AMP or GMP to the beads via a complex iron chelation mechanism. The amount of bound tritiated product ([^3H]-AMP) is measured by liquid scintillation counting.
The compounds were dissolved and diluted in 100% DMSO in polystyrene plates to a concentration of 100-fold the final concentration in the assay. Human PDE10A enzyme solution (10 μL) was added to 20 μL, of incubation buffer (50 mM Tris pH 7.8, 8.3 mM MgCl2, 1.7 mM EGTA), 10 μL, substrate solution consisting of a mixture of non-tritiated and tritiated substrate (60 nM cAMP, 0.008 μCi ^3H-cAMP), and 0.4 μL, compound in 100% DMSO in a 384-well plate, and incubated for 60 min at room temperature. After incubation, the reaction was stopped with 20 μL, of stop solution, consisting of PDE SPA beads (17.8 mg beads/mL in 18 mM zinc sulphate). After sedimentation of the beads for 30 min, the radioactivity was measured in a Perkin Elmer Topcount scintillation counter and results were expressed as cpm. To measure the low control, no enzyme was added to the reaction mixture.
Data were calculated as the percentage of inhibition of total activity measured in the absence of test compound (% control).

Sequence of Human recombinant PDE10A2 (Q9Y233 267-1055): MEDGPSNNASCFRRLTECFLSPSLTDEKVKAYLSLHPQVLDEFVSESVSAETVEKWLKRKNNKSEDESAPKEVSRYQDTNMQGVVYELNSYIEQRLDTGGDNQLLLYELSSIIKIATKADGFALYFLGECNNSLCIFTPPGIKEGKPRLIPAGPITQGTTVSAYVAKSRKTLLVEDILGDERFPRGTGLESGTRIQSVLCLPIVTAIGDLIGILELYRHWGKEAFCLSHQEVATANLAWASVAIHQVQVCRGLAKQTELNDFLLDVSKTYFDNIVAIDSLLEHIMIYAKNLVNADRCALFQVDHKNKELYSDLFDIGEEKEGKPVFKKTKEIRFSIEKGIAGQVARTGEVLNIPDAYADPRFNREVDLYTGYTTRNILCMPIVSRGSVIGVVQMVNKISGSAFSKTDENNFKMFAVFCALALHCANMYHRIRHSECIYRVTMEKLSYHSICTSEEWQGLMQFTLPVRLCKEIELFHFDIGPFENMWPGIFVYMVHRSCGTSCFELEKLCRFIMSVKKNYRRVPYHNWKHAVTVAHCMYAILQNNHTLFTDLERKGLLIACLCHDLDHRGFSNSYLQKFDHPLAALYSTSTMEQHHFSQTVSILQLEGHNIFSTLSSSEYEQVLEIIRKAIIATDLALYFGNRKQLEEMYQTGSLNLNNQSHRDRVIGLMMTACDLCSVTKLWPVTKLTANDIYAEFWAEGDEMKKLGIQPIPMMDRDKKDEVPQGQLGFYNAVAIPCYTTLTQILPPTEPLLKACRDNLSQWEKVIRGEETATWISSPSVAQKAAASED
Sequence of Rat recombinant PDE10a (rPDE10a) (Q9QYJ6 whole entry): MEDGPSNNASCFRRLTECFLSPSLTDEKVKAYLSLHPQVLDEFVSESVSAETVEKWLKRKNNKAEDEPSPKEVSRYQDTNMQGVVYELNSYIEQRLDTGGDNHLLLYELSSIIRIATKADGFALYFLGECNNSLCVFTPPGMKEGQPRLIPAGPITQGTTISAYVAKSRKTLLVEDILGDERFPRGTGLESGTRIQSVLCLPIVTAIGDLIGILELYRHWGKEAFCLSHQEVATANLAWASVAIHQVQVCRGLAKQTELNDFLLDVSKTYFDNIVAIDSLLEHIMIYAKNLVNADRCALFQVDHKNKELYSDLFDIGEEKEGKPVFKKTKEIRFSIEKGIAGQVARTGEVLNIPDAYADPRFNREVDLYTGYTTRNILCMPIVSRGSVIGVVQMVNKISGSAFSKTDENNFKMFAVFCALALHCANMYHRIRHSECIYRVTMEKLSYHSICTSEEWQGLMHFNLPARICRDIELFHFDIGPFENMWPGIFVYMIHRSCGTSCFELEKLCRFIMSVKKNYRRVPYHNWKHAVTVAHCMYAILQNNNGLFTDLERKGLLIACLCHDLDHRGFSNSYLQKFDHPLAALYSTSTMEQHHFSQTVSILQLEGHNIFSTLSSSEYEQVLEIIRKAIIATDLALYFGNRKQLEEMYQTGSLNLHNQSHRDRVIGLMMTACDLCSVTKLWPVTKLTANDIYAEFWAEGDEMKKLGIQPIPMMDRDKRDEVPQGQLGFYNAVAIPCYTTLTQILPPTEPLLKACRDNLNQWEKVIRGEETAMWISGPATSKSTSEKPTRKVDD

Usually pIC50 stands for the IC50 on a negative log10 scale, so that one unit is a factor of ten. Regarding `Cn1nc(-c2ccc(-c3cnc(N4CCOCC4)c4nc(CCc5ccc6ccccc6n5)cn34)cc2)[nH]c1=O` [Cpd 33, 1-Methyl-3-[4-[8-(morpholin-4-yl)-2-[2-(quinolin-2-yl)ethyl]imidazo[1,2-a]pyrazin-5-yl]phenyl]-4,5-dihydro-1H-1,2,4-triazol-5-one], the pIC50 in test [1] is 7.64; in test [2], 7.68.

Take `Oc1nc(-c2cnc(N3CCOCC3)c3nc(COc4ccc5ccccc5n4)cn23)no1` [Cpd 75, 3-(8-Morpholino-2-((quinolin-2-yloxy)methyl)imidazo[1,2-a]pyrazin-5-yl)-1,2,4-oxadiazol-5-ol]: the pIC50 in test [1] and in test [2] was greater than 9.00 in each case.

As to `O=C(O)c1cncc(-c2cnc(N3CCOCC3)c3nc(/C=C/c4ccc5ccccc5n4)cn23)c1` [Cpd 27, (E)-5-(8-Morpholino-2-(2-(quinolin-2-yl)vinyl)imidazo[1,2-a]pyrazin-5-yl)nicotinic acid], the pIC50 in test [1] and in test [2] was 8.70 each time.

As to `c1ccc2nc(OCc3cn4c(-c5ccc(N6CCNCC6)nc5)cnc(C5CCOCC5)c4n3)ccc2c1` [compound 83, 2-((5-(6-(piperazin-1-yl)pyridin-3-yl)-8-(tetrahydro-2H-pyran-4-yl)imidazo[1,2-a]pyrazin-2-yl)methoxy)quinoline trifluoroacetic acid salt], the pIC50 was 6.57 in test [1] and 6.50 in test [2].

With `O=c1[nH]c2ccc(-c3cnc(N4CCOCC4)c4nc(CCc5ccc6ccccc6n5)cn34)cc2o1` [Cpd 64, 6-(8-morpholino-2-(2-(quinolin-2-yl)ethyl)imidazo[1,2-a]pyrazin-5-yl)benzo[d]oxazol-2(3H)-one trifluoroacetic acid salt], the pIC50 in test [1] was 7.66; in test [2] it was 7.89.

Turning to `O=C(O)[C@@H]1CCCN1C(=O)c1ccc(-c2cnc(N3CCOCC3)c3nc(CCc4ccc5ccccc5n4)cn23)cc1` [Cpd 35, (S)-1-(4-(8-Morpholino-2-(2-(quinolin-2-yl)ethyl)imidazo[1,2-a]pyrazin-5-yl)benzoyl)pyrrolidine-2-carboxylic acid trifluoroacetic acid salt], the pIC50 was 7.92 in test [1] and 8.15 in test [2].

`O=C(O)CCNC(=O)c1ccc(-c2cnc(N3CCOCC3)c3nc(CCc4ccc5ccccc5n4)cn23)cc1` [Cpd 38, 3-(4-(8-Morpholino-2-(2-(quinolin-2-yl)ethyl)imidazo[1,2-a]pyrazin-5-yl)benzamido)propanoic acid]: the pIC50 was 8.15 in test [1] and 8.70 in test [2].

On to `O=C(O)c1ccc(-c2cnc(N3CCOCC3)c3nc(/C=C/c4ccc5ccccc5n4)cn23)cc1F` [Cpd 3, (E)-2-Fluoro-4-(8-morpholino-2-(2-(quinolin-2-yl)vinyl)imidazo[1,2-a]pyrazin-5-yl)benzoic acid hydrochloric acid salt], for which the pIC50 in test [1] is 8.05; in test [2] it was 8.30.

Turning to `O=C(O)CCNc1ccc(-c2cnc(N3CCOCC3)c3nc(CCc4ccc5ccccc5n4)cn23)cc1` [Cpd 23, 3-(4-(8-Morpholino-2-(2-(quinolin-2-yl)ethyl)imidazo[1,2-a]pyrazin-5-yl)phenylamino)propanoic acid trifluoroacetic acid salt], the pIC50 is 8.22 in test [1] and 8.10 in test [2].

As for `CS(=O)(=O)Nc1ccc(-c2cnc(N3CCOCC3)c3nc(CCc4ccc5ccccc5n4)cn23)cn1` [Cpd 78, N-(5-(8-Morpholino-2-(2-(quinolin-2-yl)ethyl)imidazo[1,2-a]pyrazin-5-yl)pyridin-2-yl)methanesulfonamide], the pIC50 in test [1] is greater than 9.00; in test [2] it was 9.00.

In the case of `c1ccc2nc(CCc3cn4c(-c5ccc(N6CCNCC6)nc5)cnc(N5CCOCC5)c4n3)ccc2c1` [Cpd 102, 4-(5-(6-(piperazin-1-yl)pyridin-3-yl)-2-(2-(quinolin-2-yl)ethyl)imidazo[1,2-a]pyrazin-8-yl)morpholine trifluoroacetic acid salt], the pIC50 in test [1] is 7.77; in test [2], 7.46.

For the molecule `CN1C(=O)NS(=O)(=O)c2cc(-c3cnc(N4CCOCC4)c4nc(/C=C/c5ccc6ccccc6n5)cn34)ccc21` [Cpd 24, (E)-4-Methyl-7-(8-morpholino-2-(2-(quinolin-2-yl)vinyl)imidazo[1,2-a]pyrazin-5-yl)-2H-benzo[e][1,2,4]thiadiazin-3(4H)-one 1,1-dioxide trifluoroacetic acid salt], the pIC50 is 8.30 in test [1] and 8.52 in test [2].

Consider `Cn1nc(-c2ccc(-c3cnc(N4CCOCC4)c4nc(/C=C/c5ccc6ccccc6n5)cn34)cc2)[nH]c1=O` [Cpd 47, (E)-2-Methyl-5-(4-(8-morpholino-2-(2-(quinolin-2-yl)vinyl)imidazo[1,2-a]pyrazin-5-yl)phenyl)-2H-1,2,4-triazol-3(4H)-one], for which the pIC50 in test [1] was 7.82; in test [2], 7.47.

For `C(=C\c1ncccn1)/c1cn2c(-c3ccc(N4CCNCC4)nc3)cnc(N3CCOCC3)c2n1` [Cpd 103, (E)-4-(5-(6-(Piperazin-1-yl)pyridin-3-yl)-2-(2-(pyrimidin-2-yl)vinyl)imidazo[1,2-a]pyrazin-8-yl)morpholine], the negative-log IC50 (pIC50) in test [1] is 6.21; in test [2], 6.17.

Consider `O=S1(=O)CCN(c2ncc(-c3ccc(N4CCNCC4)nc3)n3cc(COc4ccc5ccccc5n4)nc23)CC1` [Cpd 117, 4-(5-(6-(Piperazin-1-yl)pyridin-3-yl)-2-((quinolin-2-yloxy)methyl)imidazo[1,2-a]pyrazin-8-yl)thiomorpholine 1,1-dioxide trifluoroacetic acid salt], for which the results for the pIC50 in test [1] and in test [2] were 7.49 and 7.25, respectively.

For the molecule `O=c1[nH]ncn1-c1ccc(-c2cnc(N3CCOCC3)c3nc(/C=C/c4ccc5ccccc5n4)cn23)cc1` [Cpd 58, (E)-4-(4-(8-morpholino-2-(2-(quinolin-2-yl)vinyl)imidazo[1,2-a]pyrazin-5-yl)phenyl)-1H-1,2,4-triazol-5(4H)-one], the pIC50 in test [1] was 6.88; in test [2], 7.04.

`c1ccc2nc(SCc3cn4c(-c5ccc(-c6nnn[nH]6)nc5)cnc(N5CCOCC5)c4n3)ccc2c1` [Cpd 70, 4-(5-(6-(1H-Tetrazol-5-yl)pyridin-3-yl)-2-((quinolin-2-ylthio)methyl)imidazo[1,2-a]pyrazin-8-yl)morpholine]: the pIC50 in test [1] was 9.00; in test [2], 8.70.

In the case of `c1ccc2nc(OCc3cn4c(-c5ccc(-c6nnn[nH]6)cc5)cnc(N5CCOCC5)c4n3)ccc2c1` [Cpd 90, 4-(5-(4-(1H-Tetrazol-5-yl)phenyl)-2-((quinolin-2-yloxy)methyl)imidazo[1,2-a]pyrazin-8-yl)morpholine], the pIC50 in test [1] is 9.00; in test [2] it was 8.70.

Take `c1cnc(OCc2cn3c(-c4ccc(N5CCNCC5)nc4)cnc(N4CCOCC4)c3n2)nc1` [Cpd 116, 4-(5-(6-(piperazin-1-yl)pyridin-3-yl)-2-((pyrimidin-2-yloxy)methyl)imidazo[1,2-a]pyrazin-8-yl)morpholine trifluoroacetic acid salt]: the pIC50 in test [1] is 5.44; in test [2], 5.58.

As for `O=C1NC(=O)C(c2ccc(-c3cnc(N4CCOCC4)c4nc(CCc5ccc6ccccc6n5)cn34)cc2)O1` (stereo not drawn) [Cpd 26, 5-(4-(8-Morpholino-2-(2-(quinolin-2-yl)ethyl)imidazo[1,2-a]pyrazin-5-yl)phenyl)oxazolidine-2,4-dione trifluoroacetic acid salt], the pIC50 in test [1] was 8.10; in test [2], 8.22.

For `COCOc1c(C)cc(-c2cnc(N3CCOCC3)c3nc(/C=C/c4ccc5ccccc5n4)cn23)cc1C` [Cpd 41, (E)-4-(5-(4-(methoxymethoxy)-3,5-dimethylphenyl)-2-(2-(quinolin-2-yl)vinyl)imidazo[1,2-a]pyrazin-8-yl)morpholine], the pIC50 in test [1] was 7.68; in test [2] it was 7.72.
